The text below walks through data of ChEMBL document CHEMBL1201862, “PubChem BioAssay data set” (2004).

Some test systems named below: CAKI-1; CCRF-CEM; HCC 2998; HCT-116; HT-29; K562; KM12; LOX IMVI; M14; MOLT-4; NCI-H23; PC-3; SF-268; SF-295; SNB-19; SR; T47D; TK-10; NCI-H460; UO-31.
Common to all, as to test: inhibition of tumour cell growth, NCI panel, 48 h

The structures appear in SMILES notation. Values joined by “and” are separate entries in the source; they are usually repeats but may differ in a detail not shown here. Equal entries are not always repeated.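 These data come from cells grown in 96-well plates and exposed to compound for 48 hours at five concentrations. GI50 marks 50% less growth.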 Active and inactive are the calls of the source. Rule as the data show it: active = GI50 up to about 1.1 µM and inactive = higher. Residues, ends and D or L forms follow the SMILES beside them. *: point of attachment. Boc = CC(C)(C)OC(=O)*; OBn = c1ccc(CO*)cc1 Bounds are passed on as bounds.

Consider `O=C(CC(O)(C(F)(F)F)C(F)(F)F)c1cccs1`, for which the GI50 in the assay with CAKI-1, in the assay with CCRF-CEM, in the assay on HCC 2998, with HCT-116, in the assay with HT-29 and in the assay on K562 was > 10 µM (inactive) each time. The GI50 with KM12, in the assay on LOX IMVI, in the assay on M14, in the assay with MOLT-4, in the assay with NCI-H23 and with PC-3 was > 10 µM (inactive) each time. Also, the GI50 in the assay with SF-268, with SF-295, in the assay with SNB-19, in the assay with SR, with T47D and in the assay with TK-10 was > 10 µM (inactive) in each case.

For the molecule `COc1c2occc2cc2ccc(=O)oc12` [METHOXSALEN], the GI50 with CAKI-1, with CCRF-CEM, with HCC 2998, in the assay on HCT-116, in the assay with K562 and in the assay on LOX IMVI was > 100 µM (inactive) in each case. Besides, the GI50 was > 100 µM (inactive) in the assay on M14; > 100 µM (inactive) with MOLT-4; > 100 µM (inactive) with NCI-H23; 62.7 µM (inactive) with NCI-H460; > 100 µM (inactive) in the assay with PC-3; > 100 µM (inactive) with SF-295. The GI50 with SNB-19 was > 100 µM (inactive); in the assay on SR, 90.6 µM (inactive); in the assay on T47D, > 100 µM (inactive); in the assay on TK-10, > 100 µM (inactive); in the assay on UO-31, > 100 µM (inactive).

Consider `CCOC(=O)[C@H](C)OC(=O)[C@@](C)(NC(=O)c1ccccc1C(=O)OC)[C@@H]1NC=C(C(=O)OC)CS1`, for which the GI50 in the assay with CAKI-1 was > 100 µM (inactive); in the assay with CCRF-CEM, 20.3 µM (inactive); in the assay on HCC 2998 it was > 100 µM (inactive); in the assay on HCT-116, > 100 µM (inactive); in the assay on HT-29, > 100 µM (inactive); with K562 it was 36.5 µM (inactive). Moreover, the GI50 with KM12 was > 100 µM (inactive); with M14 it was > 100 µM (inactive); in the assay with MOLT-4, 41.8 µM (inactive); in the assay on NCI-H23, > 100 µM (inactive); in the assay on NCI-H460 it was 80.4 µM (inactive); in the assay on PC-3, > 100 µM (inactive). For the same molecule, the GI50 in the assay with SF-268 was > 100 µM (inactive); in the assay on SF-295 it was > 100 µM (inactive); in the assay on SNB-19 it was > 100 µM (inactive); in the assay with SR, 20.4 µM (inactive); in the assay on T47D, 91.2 µM (inactive); in the assay with TK-10, > 100 µM (inactive). Moreover, the GI50 with UO-31 was > 100 µM (inactive).

On to `O=C1NC2(CCCCC2)N=C2C(Cl)CCCC12Cl` (configuration not stated), for which the GI50 with CCRF-CEM, in the assay on HCC 2998, in the assay on HT-29, in the assay with K562, in the assay with KM12 and with LOX IMVI was > 100 µM (inactive) throughout. Besides, the GI50 in the assay with M14, in the assay with MOLT-4, in the assay with NCI-H23, in the assay with NCI-H460, in the assay with PC-3 and in the assay with SF-268 was > 100 µM (inactive) throughout. In addition, the GI50 in the assay with SF-295, with SNB-19, with SR, with T47D, in the assay on TK-10 and in the assay with UO-31 was > 100 µM (inactive) throughout.

In the case of `O=c1[nH]c2nc3ccccc3c(=O)n2/c1=C/c1ccc(Cl)cc1`, the GI50 is > 100 µM (inactive) in the assay with CAKI-1; 37 µM (inactive) in the assay on CCRF-CEM; 21.7 µM (inactive) with HCC 2998; 36 µM (inactive) with HCT-116; 18.4 µM (inactive) in the assay with KM12; 30.4 µM (inactive) with LOX IMVI. In addition, the GI50 was 36.9 µM (inactive) in the assay with M14; 51.6 µM (inactive) in the assay on MOLT-4; 25.8 µM (inactive) in the assay on NCI-H23; > 100 µM (inactive) in the assay on PC-3; 26.9 µM (inactive) with SF-268; 54.6 µM (inactive) with SF-295. The GI50 was 23.4 µM (inactive) in the assay on SNB-19; > 100 µM (inactive) in the assay on SR; 36.2 µM (inactive) in the assay with T47D; 58.5 µM (inactive) in the assay with TK-10; 67.6 µM (inactive) in the assay on UO-31.

On to `CC(C)C(NC(=O)CNC(=O)C1CCCN1C(=O)C(NC(=O)OC(C)(C)C)C(C)C)C(=O)NCC(=O)OCc1ccccc1` (configuration not stated) (Boc-VPGVG-OBn; configuration not given here), for which the GI50 was > 100 µM (inactive) in the assay on CAKI-1; > 100 µM (inactive) with CCRF-CEM; > 100 µM (inactive) with HCC 2998; > 100 µM (inactive) with HCT-116; > 100 µM (inactive) in the assay with HT-29; 61.4 µM (inactive) in the assay on K562. For the same molecule, the GI50 in the assay with KM12, in the assay on LOX IMVI, with M14, in the assay with MOLT-4, with NCI-H23 and in the assay on NCI-H460 was > 100 µM (inactive) in each case. Besides, the GI50 in the assay on PC-3, with SF-268, in the assay on SF-295, in the assay with SNB-19, in the assay on SR and in the assay with T47D was > 100 µM (inactive) each time. In addition, the GI50 with UO-31 was > 100 µM (inactive).

On to `COC(=O)C1OC(O[C@H]2CC[C@]3(C)[C@H]4CC=C5[C@@H]6CC(C)(C)CC[C@]6(C(=O)OC6OCC(O)C(O)C6OC6OC(C)C(OC7OCC(O)C(O)C7O)C(O)C6O)[C@H](O)C[C@@]5(C)[C@]4(C)CC[C@H]3C2(C)C)C(O)C(O)C1O` (some centres not stated), for which the GI50 is 2.61 µM (inactive) and 4 µM (inactive) in the assay on CAKI-1; 2.82 µM (inactive) and 1.82 µM (inactive) in the assay with HCC 2998; 4.08 µM (inactive) and 4.86 µM (inactive) with HCT-116; 2.77 µM (inactive) and 3.73 µM (inactive) with HT-29; 6.28 µM (inactive) and 10.8 µM (inactive) with K562; 3.48 µM (inactive) and 3.61 µM (inactive) in the assay on KM12. For the same molecule, the GI50 in the assay with LOX IMVI was 3.36 µM (inactive) and 6.43 µM (inactive); with M14, 2.75 µM (inactive) and 3.91 µM (inactive); in the assay on NCI-H23, 2.14 µM (inactive) and 2.24 µM (inactive); in the assay with PC-3 it was 4.45 µM (inactive) and 4.68 µM (inactive); in the assay on SF-268 it was 9.29 µM (inactive) and 9.2 µM (inactive); in the assay on SF-295, 3.95 µM (inactive) and 3.91 µM (inactive). The GI50 in the assay on SNB-19 was 4.56 µM (inactive) and 7.24 µM (inactive); in the assay on SR, 3.14 µM (inactive) and 3.86 µM (inactive); in the assay with T47D, 8.28 µM (inactive) and 5.32 µM (inactive); in the assay with TK-10 it was 8.15 µM (inactive) and 9.68 µM (inactive); in the assay with UO-31 it was 1.71 µM (inactive) and 2.04 µM (inactive).

On to `O=C(/C=C/c1ccc(O)c(O)c1)OCCc1cccc2ccccc12`, for which the GI50 with CAKI-1 is 8.36 µM (inactive); in the assay on CCRF-CEM, 0.501 µM (active); with HCC 2998 it was 11.1 µM (inactive); with HCT-116 it was 3.24 µM (inactive); with HT-29, 13.4 µM (inactive); in the assay on K562, 2.77 µM (inactive). Moreover, the GI50 with KM12 was 3.55 µM (inactive); in the assay on M14, 5.65 µM (inactive); in the assay with MOLT-4 it was 1.61 µM (inactive); in the assay with NCI-H23, 3.72 µM (inactive); with NCI-H460 it was 12.1 µM (inactive); in the assay on PC-3 it was 3.88 µM (inactive). Besides, the GI50 was 4.76 µM (inactive) in the assay on SF-268; 5.26 µM (inactive) in the assay with SF-295; 10.6 µM (inactive) in the assay on SNB-19; 0.841 µM (active) in the assay on SR; 12.6 µM (inactive) in the assay on T47D; 3.4 µM (inactive) with TK-10. The GI50 in the assay with UO-31 was 4.21 µM (inactive).

Regarding `CCOC1(OCC)C2C=CC1C(COS(=O)(=O)c1ccc(C)cc1)C2COS(=O)(=O)c1ccc(C)cc1` (configuration not stated), the GI50 was 20 µM (inactive) in the assay with CCRF-CEM; 38.3 µM (inactive) with HCC 2998; 21.5 µM (inactive) in the assay with HCT-116; 25.6 µM (inactive) in the assay with HT-29; 20.5 µM (inactive) in the assay with K562; 31.1 µM (inactive) in the assay on KM12. In addition, the GI50 in the assay on LOX IMVI was 24.9 µM (inactive); in the assay with M14 it was 26.8 µM (inactive); in the assay with MOLT-4 it was 11.9 µM (inactive); in the assay with NCI-H23, 39.1 µM (inactive); with NCI-H460 it was 35.5 µM (inactive); in the assay on PC-3, 11.6 µM (inactive). The GI50 in the assay on SF-268 is 19.6 µM (inactive); in the assay on SF-295 it was 96.6 µM (inactive); with SNB-19, 33.8 µM (inactive); in the assay on SR, 1.12 µM (inactive); with T47D, 14.2 µM (inactive); in the assay on TK-10, 41.2 µM (inactive). Besides, the GI50 with UO-31 was 22.8 µM (inactive).

Consider `Cc1ccc(S(=O)(=O)c2c(O)c3ccc(O)c(C)c3oc2=O)cc1`, for which the GI50 in the assay on CAKI-1, in the assay with CCRF-CEM, in the assay on HCC 2998, in the assay with HCT-116, in the assay with HT-29 and in the assay on K562 was > 100 µM (inactive) each time. The GI50 in the assay on KM12, in the assay on M14, with MOLT-4, with NCI-H23, with NCI-H460 and in the assay on PC-3 was > 100 µM (inactive) in each case. Moreover, the GI50 in the assay with SF-268, in the assay on SF-295, with SNB-19, in the assay on SR, in the assay with T47D and in the assay with TK-10 was > 100 µM (inactive) in each case. In the assay with UO-31, the GI50 was > 100 µM (inactive).
